Test results from US11065238B2, “Inhibitors of gangliosides metabolism for the treatment of motor neuron diseases” (ICM (INSTITUT DU CERVEAU ET DE LA MOELLE ÉPINIÈRE), priority 2016, dated 2021).
“Also recorded” adds a separate entry of the source.

How the values were obtained:
cultured neurons = details: glutamate treatment; cited from earlier work
p62 = assay: Western blot analysis of p62 levels in cortical neurons; format: cell-based, mouse
[1] = system: GM2 and GM3 gangliosides in primary cultures of cortical neurons; assay: Fluorescence intensity of GM2 / GM3 immunostaining in primary cultures of cortical neurons; format: cell-based, mouse; details: for increase in overall GM2 levels: glutamate treatment
Experimental: Mouse primary cultures of cortical neurons were treated with Miglustat (Tocris) from the second day in culture. Medium was changed every three days. Immunostaining were performed after six days of culture in vitro, as previously described (Murmu et al., 2011). To downregulate GM3 synthase expression, vectors expressing miRNA were produced using the Block-it kit (Life Technologies). The miRNA sequences were: […] TGTACAT (miRNA GM3S-1) (SEQ ID NO: 3), […] (miRNA GM3S-2) (SEQ ID NO: 4), […] CTGTAGA (miRNA Neu1-1) (SEQ ID NO: 5) and […] ATCGTAG (miRNA Neu1-2) (SEQ ID NO: 6). Neurons were transfected with vectors expressing the miRNA and GFP using the Neon transfection system (Life Technologies). The efficiency of the miRNA sequences was validated by transfecting NIH-3T3 cells and performing quantitative RT-PCR using a LightCycler 480 apparatus (Roche) following the manufacturer's instructions. […] Quantification of gangliosides levels was performed either with an automated ArrayScan XTI apparatus (Thermo-Fisher) using the General Intensity Measurement protocol, or with ImageJ on image acquired on a Nikon Eclipse Ti-U microscope. […] Colocalization of ganglioside staining with lysosomes was quantified using ImageJ. A mask was made from the Lamp1 staining channel and the corresponding ganglioside fluorescence was quantified as the percentage of total ganglioside fluorescence in every cell. […] To quantify neuronal death, 30 hours after glutamate treatment all neurons were labeled with 100 nM Cell tracker Deep Red (Life Technologies) and dead cells were labeled by propidium iodide (5 μM). […] The number of Tuj-1-positive cells per well was quantified with an automated ArrayScan XTI apparatus (Thermo-Fisher) using the compartmental analysis protocol. Neuronal death was quantified by comparing glutamate-treated and non-treated neurons.

[2] = system: GM2 in the telencephalon of zebrafish morphants; assay: Zebrafish zspg11 model: GM2 immunostaining in the telencephalon; format: in vivo; details: for GM2 immunostaining in the telencephalon: injection of 1.2 pmol morpholino vs mismatch morpholino
Experimental: (§1) Modeling of Spg11 pathology in zebrafish was performed as described previously (Martin, 2012). The knock-down of zspg11 was performed using a morpholino targeting a splice donor site, zspg11spl (5′-[…]-3′—SEQ ID NO: 88). The control morpholino mmzspg11spl (5′-ACgAATgATAGCcTCTCGTAgCgTC-3′—SEQ ID NO: 89) containing five mismatch nucleotides was used to distinguish specific phenotypic effects resulting from the knock-down of zspg11 from non-specific effects due to injection or morpholino toxicity. One nl of 1.2 mM solution of zspg11spl or mmzspg11spl were injected into the yolk of one- to two-cell stage embryos. After injection, embryos were maintained at 28° C. in E3 medium, containing miglustat (Tocris Bioscience) at 100 or 300 uM or DMSO for control groups. At 24 hpf they were manually dechorionated using fine forceps. […] To quantify motor activity, we monitored the touch-evoked escape response at 48 hours post-fertilization in fishes with no obvious developmental abnormalities as previously described (Martin, 2012). Images were acquired at 500 images per sec. Tracking of the touch evoked escape response was performed using the Image J manual tracking plugin. Assessment of GM2 ganglioside levels was performed by whole-mount in vivo immunohistochemistry using 48 hpf embryos fixed in 4% paraformaldehyde in PBS for 2 h at room temperature. Embryos were washed 3 times (5 min each) in PBS-0.1% Triton X-100 (PBST). Embryos were blocked for 1 h in 5% normal goat serum in PBS containing 1% DMSO and 1% Triton X-100 (PBDT), then incubated overnight at 4° C. in blocking solution containing the GM2 primary antibody. […] Larvae were oriented in the same position for image capture to minimize potential biases in quantification. […] Using ImageJ software, the maximum intensity projections of z-stacks were used for quantification of fluorescence in the telencephalon. Mean and variance of the fluorescence intensity were quantified for each morphant in a square of 100 pixels per 100 pixels.

[3] = system: zebrafish zspg11 morphants; assay: Zebrafish zspg11 model: phenotype of morphants 48 hours post fertilization; format: in vivo; details: 48 hpf; for motor phenotype of morphants: injection of 1.2 pmol morpholino vs mismatch or non-injected
Experimental: as §1

[4] = system: zebrafish zspg11 morphants; assay: Zebrafish zspg11 model: touch-evoked escape response; format: in vivo; details: for swimming / touch-induced escape: injection of 1.2 pmol morpholino vs mismatch morpholino; for distance travelled following a touch-evoked escape response: treated with miglustat
Experimental: Modeling of Spg11 pathology in zebrafish was performed as described previously (Martin, 2012). The knock-down of zspg11 was performed using a morpholino targeting a splice donor site, zspg11spl (5′-[…]-3′—SEQ ID NO: 88). The control morpholino mmzspg11spl (5′-ACgAATgATAGCcTCTCGTAgCgTC-3′—SEQ ID NO: 89) containing five mismatch nucleotides was used to distinguish specific phenotypic effects resulting from the knock-down of zspg11 from non-specific effects due to injection or morpholino toxicity. One nl of 1.2 mM solution of zspg11spl or mmzspg11spl were injected into the yolk of one- to two-cell stage embryos. After injection, embryos were maintained at 28° C. in E3 medium, containing miglustat (Tocris Bioscience) at 100 or 300 uM or DMSO for control groups. At 24 hpf they were manually dechorionated using fine forceps. […] To quantify motor activity, we monitored the touch-evoked escape response at 48 hours post-fertilization in fishes with no obvious developmental abnormalities as previously described (Martin, 2012). Images were acquired at 500 images per sec. Tracking of the touch evoked escape response was performed using the Image J manual tracking plugin. Assessment of GM2 ganglioside levels was performed by whole-mount in vivo immunohistochemistry using 48 hpf embryos fixed in 4% paraformaldehyde in PBS for 2 h at room temperature. Embryos were washed 3 times (5 min each) in PBS-0.1% Triton X-100 (PBST). Embryos were blocked for 1 h in 5% normal goat serum in PBS containing 1% DMSO and 1% Triton X-100 (PBDT), then incubated overnight at 4° C. in blocking solution containing the GM2 primary antibody. After 4 washes in PBST at room temperature, embryos were incubated with an anti IgM antibody coupled to Alexa-488 (Thermo Fishser), overnight at room temperature in PBDT. Before observation, embryos were washed 3 times in PSBT and mounted in a drop of Fluoromount™ Aqueous Mounting Medium (Sigma Aldrich). Whole-mount embryos were imaged on a confocal microscope (Leica SP8, 40X, NA 0.8). Larvae were oriented in the same position for image capture to minimize potential biases in quantification. Image stacks were collected with a step-size of 0.35 μm. Using ImageJ software, the maximum intensity projections of z-stacks were used for quantification of fluorescence in the telencephalon. Mean and variance of the fluorescence intensity were quantified for each morphant in a square of 100 pixels per 100 pixels.

[5] = system: autolysosomes in Spg11+/+ and Spg11−/− neurons; assay: Proportion of Lamp1-stained lysosomes also positive for p62 (autolysosomes) in cultured cortical neurons; format: cell-based, mouse; details: miglustat 100 μM, six days in vitro
Experimental: (§2) Mouse primary cultures of cortical neurons were treated with Miglustat (Tocris) from the second day in culture. Medium was changed every three days. Immunostaining were performed after six days of culture in vitro, as previously described (Murmu et al., 2011). To downregulate GM3 synthase expression, vectors expressing miRNA were produced using the Block-it kit (Life Technologies). The miRNA sequences were: […] TGTACAT (miRNA GM3S-1) (SEQ ID NO: 3), […] (miRNA GM3S-2) (SEQ ID NO: 4), […] CTGTAGA (miRNA Neu1-1) (SEQ ID NO: 5) and […] ATCGTAG (miRNA Neu1-2) (SEQ ID NO: 6). Neurons were transfected with vectors expressing the miRNA and GFP using the Neon transfection system (Life Technologies). The efficiency of the miRNA sequences was validated by transfecting NIH-3T3 cells and performing quantitative RT-PCR using a LightCycler 480 apparatus (Roche) following the manufacturer's instructions. […] Quantification of gangliosides levels was performed either with an automated ArrayScan XTI apparatus (Thermo-Fisher) using the General Intensity Measurement protocol, or with ImageJ on image acquired on a Nikon Eclipse Ti-U microscope. […] Colocalization of ganglioside staining with lysosomes was quantified using ImageJ. A mask was made from the Lamp1 staining channel and the corresponding ganglioside fluorescence was quantified as the percentage of total ganglioside fluorescence in every cell. […]

[6] = system: primary cultures of Spg11+/+ and Spg11−/− cortical neurons; assay: Neuronal death triggered by glutamate in primary cultures of cortical neurons; format: cell-based, mouse; details: glutamate 200 μM, 30 hours
Experimental: as §2

[7] = system: mouse model of Tay Sachs disease; details: cited from earlier work

Q: With N[C@@H](CCC(=O)O)C(=O)O [Glutamate, glutamate] as the compound, how does the ganglioside levels (cultured neurons) read?
A: The ganglioside levels was “increase ganglioside levels”.

Q: What about the p62 levels (p62; Spg11−/− neurons treated with glutamate (200 μM) for 24 hours) of the same compound?
A: The p62 levels was “significantly increased”.

Q: What about the p62 levels (p62; control neurons treated with glutamate (200 μM) for 24 hours) of the same compound?
A: The p62 levels was “no difference”.

Q: What about the “increase in overall GM2 levels” value ([1]; Spg11−/− neurons, p=0.007, n>10) of the same compound?
A: Its value is 15.7±3.9%.

Q: And the “increase in overall GM2 levels” value ([1]; control neurons, p=0.02, n>9)?
A: Its value is 20.0±4.6%.

Q: Which “GM2 immunostaining in the telencephalon” value [2] does the source give for “zspg11spl: morpholino targeting a splice donor site for knock-down of zspg11, 5′-ACCAATCATAGCGTCTCGTACCCTC-3′ (all phosphorodiamidate morpholino (PMO))” here?
A: The value was “increased the mean and variance of GM2 immunostaining intensity”.

Q: And the “GM2 immunostaining in the telencephalon” value ([2]; listed as zspg11 morpholinos)?
A: The value was “stronger GM2 staining”.

Q: And the “motor phenotype of morphants” value [3]?
A: Its value is “large proportion of paralyzed or slowly swimming phenotypes”.

Q: What about the “motor phenotype of morphants” value ([3]; listed as zspg11 morpholinos) of the same compound?
A: The value was “either a loss of motility or a paralysis”.

Q: What about the “swimming / touch-induced escape” value [4] of the same compound?
A: Its value is “impaired the swimming”.

Q: And the “swimming / touch-induced escape” value ([4]; listed as zspg11 morpholinos)?
A: The value was “significantly shorter touch-induced escapes”.

Q: With CCCCN1C[C@H](O)[C@@H](O)[C@H](O)[C@H]1CO [Miglustat, N-butyldeoxynojirimycin] as the compound, how does the “proportion of lysosomes positive for the p62 marker” value [5] read?
A: Its value is “strongly decreased”.

Q: And the “GM2 immunostaining intensity (mean and variance) in the telencephalon” value ([2]; morphants injected with zspg11spl morpholino, treated with miglustat, 48 hpf)?
A: Its value is “corrected when morphants were treated with miglustat; also recorded: corrected in larvae treated by miglustat”.

Q: And the “glutamate-induced increase of p62 levels” value (p62; Spg11−/− neurons, miglustat 100 μM, glutamate 200 μM for 24 hours, p62 normalized to tubulin)?
A: The value was “inhibited”.

Q: And the “neuronal death induced by glutamate” value [6]?
A: The value was “prevented neuronal death induced by glutamate; also recorded: decreased the neuronal death induced by glutamate in a dose-dependent manner”.

Q: What about the “proportion of paralyzed larvae” value ([3]; larvae injected with zspg11spl morpholino, miglustat 100 or 300 uM in medium) of the same compound?
A: Its value is “decreased the proportion of paralyzed morphants; also recorded: significantly reduced in a dose-dependent manner”.

Q: What about the “levels of GM2 (fluorescence intensity of GM2 immunostaining)” value ([1]; control and Spg11−/− cortical neurons, six days in vitro) of the same compound?
A: Its value is “significantly decreased the levels of GM2 in a dose-dependent manner”.

Q: What about the “distance travelled following a touch-evoked escape response” value ([4]; morphants injected with mismatch morpholino) of the same compound?
A: Its value is “no effect”.

Q: What about the “distance travelled following a touch-evoked escape response” value ([4]; morphants injected with zspg11spl morpholino, 48 hpf) of the same compound?
A: Its value is “corrected when treated by miglustat; also recorded: significantly corrected”.

Q: And the “brain levels of GM2” value [7]?
A: The value was “decrease brain levels of GM2”.
